Assay results: PMC9863965 (Molecules, 2023)
≈ marks a conversion by molar mass, not a printed value.

Tests used:
[1] = test system: prostate cancer (PC3); test: MTT cytotoxicity assay, prostate cancer (PC3); format: cell-based
Excerpt: (§1) The cell lines laboratory at Vacsera, Dokkey, Giza, Egypt provided colon cancer (Caco2), cervical cancer (HeLa), prostate cancer (PC3), breast cancer (MCF7), hepatocellular carcinoma (HepG2) and normal human fetal lung fibroblast (WI38). The sterility of the process was maintained using a laminar airflow cabinet. The Roswell Park Memorial Institute medium (RPMI 1640) was used to sustain the cell culture. […] The 10% heat-inactivated fetal bovine serum was used to supplement the medium. The 3-(4,5-dimethylthiazol-2-yl)-2,5-diphenyl-2H-tetrazolium bromide (MTT) assay was employed to measure cytotoxicity. A purple formazan was created from the yellow MTT via a mitochondrial reduction. For inoculation, a 96-well microplate was filled with 1 × 10^5 cells per well in 100 μL of Roswell Park Memorial Institute medium (RPMI 1640). Conditions of 5% CO2, 37 °C and 95% humidity were used to incubate the microplate for 24 h to produce a completely formed monolayer sheet. After the cells formed a confluent layer, the growth media was decanted from 96-well microplates. […] Confluent cell monolayers were injected with 0.1 mL of the extract at each concentration using a multichannel pipette, and then they were dispersed throughout the 96 wells. The cells that were treated with the extracts were incubated at 37 °C and 5% CO2 for 24 h. […] The optical density at 560 nm was determined using a microplate reader. […]

[2] = test system: cervical cancer (HeLa); test: MTT cytotoxicity assay, cervical cancer (HeLa); format: cell-based
Excerpt: as §1

[3] = test system: hepatocellular carcinoma (HepG2); test: MTT cytotoxicity assay, hepatocellular carcinoma (HepG2); format: cell-based
Excerpt: as §1

[4] = test system: colon cancer (Caco2); test: MTT cytotoxicity assay, colon cancer (Caco2); format: cell-based
Excerpt: as §1

[5] = test system: normal human fetal lung fibroblast (WI38); test: MTT cytotoxicity assay, normal fibroblast (WI38); format: cell-based; conditions: WI-38, mean ± standard deviation
Excerpt: as §1

[6] = test system: breast cancer (MCF7); test: MTT cytotoxicity assay, breast cancer (MCF7); format: cell-based
Excerpt: as §1

[7] = test system: tumor microtubule proteins of cancer cells; parameters: method as in doi:10.1016/j.molstruc.2022.132636, PMID 22721782; conditions: cited from earlier work

Compound: COc1cccc2c1C(=O)c1c(O)c3c(c(O)c1C2=O)C[C@@](O)(C(=O)CO)C[C@@H]3O[C@H]1C[C@H](N)[C@H](O)[C@H](C)O1 [Doxorubicin, doxorubicin]
- SI: selectivity index ([1]; IC50 of non-cancer cell line (WI38) / IC50 of PC3): 1.3
- IC50 ([1]; MTT assay, prostate cancer (PC3), mean ± standard deviation): 38 ± 2 mg/L (≈ 69.9 µM)
- IC50 ([2]; Homo sapiens, MTT assay, cervical cancer (HeLa), mean ± standard deviation): 40 ± 2 mg/L (≈ 73.6 µM)
- SI: selectivity index ([2]; IC50 of non-cancer cell line (WI38) / IC50 of HeLa): 1.2
- IC50 ([3]; Homo sapiens, MTT assay, hepatocellular carcinoma (HepG2), mean ± standard deviation): 44 ± 3 mg/L (≈ 81 µM)
- SI: selectivity index ([3]; IC50 of non-cancer cell line (WI38) / IC50 of HepG2): 1.1
- IC50 ([4]; Homo sapiens, Caco-2, MTT assay, colon cancer (Caco2), mean ± standard deviation): 70.1 ± 1 mg/L (≈ 129 µM)
- SI: selectivity index ([4]; IC50 of non-cancer cell line (WI38) / IC50 of Caco2): 0.7
- IC50 [5]: 51 ± 4 mg/L (≈ 93.8 µM)
- IC50 ([6]; Homo sapiens, MTT assay, breast cancer (MCF7), mean ± standard deviation): 36 ± 6 mg/L (≈ 66.2 µM)
- SI: selectivity index ([6]; IC50 of non-cancer cell line (WI38) / IC50 of MCF7): 1.4

Compound: Calystegine B
- antitumor effect on assembly of tumor microtubule proteins [7]: preventing the assembly of tumor microtubule proteins
